Test results as given in PubChem BioAssay AID330 (DTP/NCI, 2004).
Values joined by “and” are separate entries in the source; they are usually repeats but may differ in a detail not shown here. Identical values can stand only once. Inconclusive results and toxic doses are left out. Numbered stars: 1 amine (or outer) side, 2 acyl side, 3 side chain; on linkers, the order of the positions; unused ones are H or OH. Bridge positions count the residues as written; N and C are the ends. Square brackets hold non-standard residues; d marks the D form. Peptide text beside a SMILES is read from it. * marks the point of attachment. X2 = CC(C)C(C)C(C(=O)[*:2])N(C)[*:1]; Picolinoyl(3-OH) = O=C(c1ncccc1O)*; NMePhg = CN[CH](C(=O)O)c1ccccc1; Hyp = O=C(O)[CH]1C[CH](O)CN1; Sar = CNCC(=O)O

Tested on: P388 leukemia ip, CD2F1 mice, survival T/C
Experiment: NCI In Vivo Anticancer Drug Screen. Data for tumor model P388 Leukemia (intraperitoneal) in CD2F1 (CDF1) mice
Conditions: endpoint: median survival time, higher = longer survival
Method in brief: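 Mice carrying the transplanted tumor received test compound or vehicle. Survival was recorded in each group, and the value is the treated-group measurement divided by that of the vehicle-treated control group.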

[1] = dose: 60.0 mg/kg/injection, schedule: Q01DX005 (ip), vehicle: saline with Tween-80
[2] = dose: 240.0 mg/kg/injection, schedule: Q01DX005 (ip), vehicle: saline with Tween-80
[3] = dose: 50.0 mg/kg/injection, schedule: Q01DX009 (ip), vehicle: saline with Tween-80
[4] = dose: 100.0 mg/kg/injection, schedule: Q01DX009 (ip), vehicle: saline with Tween-80
[5] = dose: 200.0 mg/kg/injection, schedule: Q01DX009 (ip), vehicle: saline with Tween-80
[6] = dose: 120.0 mg/kg/injection, schedule: Q01DX005 (ip), vehicle: saline with Tween-80
[7] = dose: 25.0 mg/kg/injection, schedule: Q01DX009 (ip), vehicle: saline with Tween-80
[8] = dose: 100.0 mg/kg/injection, schedule: Q04DX003 (ip), vehicle: saline with Tween-80
[9] = dose: 400.0 mg/kg/injection, schedule: Q04DX003 (ip), vehicle: saline with Tween-80
[10] = dose: 60.0 mg/kg/injection, schedule: Q01DX005 (ip), vehicle: Klucel (hydroxypropylcellulose) (HPC)
[11] = dose: 25.0 mg/kg/injection, schedule: Q01DX009 (ip), vehicle: Klucel (hydroxypropylcellulose) (HPC)
[12] = dose: 50.0 mg/kg/injection, schedule: Q01DX009 (ip), vehicle: Klucel (hydroxypropylcellulose) (HPC)
[13] = dose: 100.0 mg/kg/injection, schedule: Q01DX009 (ip), vehicle: Klucel (hydroxypropylcellulose) (HPC)

For `CC(=O)N1CCCN(C)/C1=N/[N+](=O)[O-]`, the T/C (dose: 60.0 mg/kg/injection, schedule: Q01DX005 (ip), vehicle: saline) was 103 % of control, the T/C (dose: 120.0 mg/kg/injection, schedule: Q01DX005 (ip), vehicle: saline) was 100 % of control and the T/C (dose: 240.0 mg/kg/injection, schedule: Q01DX005 (ip), vehicle: saline) was 108 % of control.
For `O=C(O)CC1CC=CCC1CC(=O)O` (stereo unspecified), the T/C (dose: 100.0 mg/kg/injection, schedule: Q01DX001 (ip), vehicle: saline sonified) was 100 % of control, the T/C (dose: 200.0 mg/kg/injection, schedule: Q01DX001 (ip), vehicle: saline sonified) was 100 % of control and the T/C (dose: 400.0 mg/kg/injection, schedule: Q01DX001 (ip), vehicle: saline sonified) was 105 % of control.
`O=C(Nc1ccc(Cl)cc1)Nc1nnc(-c2cccc(Cl)c2)o1` was tested, and the T/C (dose: 7.5 mg/kg/injection, schedule: Q01DX005 (ip), vehicle: saline with Tween-80) was 95 % of control, the T/C (dose: 15.0 mg/kg/injection, schedule: Q01DX005 (ip), vehicle: saline with Tween-80) was 90 % of control and 93 % of control and the T/C [1] was 89 % of control. The T/C [2] was 91 % of control.
In the case of `Nc1cnccc1Nc1ccncc1`, the T/C (dose: 50.0 mg/kg/injection, schedule: Q01DX001 (ip), vehicle: saline with Tween-80) is reported as 95 % of control and the T/C (dose: 100.0 mg/kg/injection, schedule: Q01DX001 (ip), vehicle: saline with Tween-80) is reported as 100 % of control.
In the case of `Nc1nc(N)c2nc(Sc3ccc(Cl)cc3)c(=O)[nH]c2n1`, the T/C [3] is reported as 97 % of control, the T/C [4] is reported as 91 % of control and the T/C [5] is reported as 105 % of control.
`CCc1ccccc1NC(=O)C(=O)CC(=O)CS(=O)(=O)c1ccc(C)cc1` was tested, and the T/C [1] was 103 % of control, the T/C [6] was 100 % of control and the T/C [2] was 103 % of control.
With `Cc1ccc([NH-])c([NH-])c1.[Cl][Pt+2][Cl]` the T/C (dose: 1.56 mg/kg/injection, schedule: Q04DX002 (ip), vehicle: saline with Tween-80) was 105 % of control and 108 % of control, the T/C (dose: 3.12 mg/kg/injection, schedule: Q04DX002 (ip), vehicle: saline with Tween-80) was 110 % of control and the T/C (dose: 25.0 mg/kg/injection, schedule: Q04DX002 (ip), vehicle: saline with Tween-80) was 150 % of control. The T/C (dose: 50.0 mg/kg/injection, schedule: Q04DX002 (ip), vehicle: saline with Tween-80) was 159 % of control.
`C=C1C(=O)OC2C1C(OC(=O)/C(C)=C/C)CC(O)(CCl)C1C(OC(C)=O)C=C(C)C21O` (stereo unspecified) was tested, and the T/C [7] was 117 % of control, the T/C [3] was 109 % of control and the T/C [4] was 114 % of control. For the same molecule, the T/C [5] was 108 % of control.
`Cc1ccc(S(=O)c2cc(C)cc(C(C)(C)C)c2O)cc1` (stereo unspecified) was tested, and the T/C [3] was 103 % of control, the T/C [4] was 105 % of control and the T/C [5] was 96 % of control.
`NC(=S)N/N=C1/CC(=O)N(c2ccccc2)C1c1ccccc1` (stereo unspecified) was tested, and the T/C [1] was 103 % of control, the T/C [6] was 98 % of control and the T/C [2] was 94 % of control.
`CC(C)(C)C1CCC(=O)C2(CCCC2)C1` (stereo unspecified) was tested, and the T/C [3] was 100 % of control, the T/C [4] was 114 % of control and the T/C [5] was 122 % of control.
With `C/C=C(\C)C(C)(C#N)Nc1ccccc1` (stereo unspecified) the T/C [5] was 90 % of control.
With `Nc1nc(N)c(N=O)c(Nc2ccc(Br)cc2)n1` the T/C [8] was 91 % of control and the T/C [9] was 95 % of control.
In the case of `O=CC1=CSC(=C2SC=CS2)S1`, the T/C (dose: 15.0 mg/kg/injection, schedule: Q01DX005 (ip), vehicle: Klucel + Tween-80) is reported as 95 % of control, the T/C (dose: 30.0 mg/kg/injection, schedule: Q01DX005 (ip), vehicle: Klucel + Tween-80) is reported as 87 % of control and the T/C [10] is reported as 101 % of control. For the same molecule, the T/C (dose: 60.0 mg/kg/injection, schedule: Q01DX005 (ip), vehicle: Klucel + Tween-80) was 106 % of control.
With `COc1ccc(C(=O)c2no[n+]([O-])c2C(=O)c2ccc(OC)cc2)cc1` the T/C [7] was 108 % of control, the T/C [3] was 104 % of control and 107 % of control and the T/C [4] was 100 % of control and 106 % of control. The T/C [5] was 115 % of control and the T/C (dose: 400.0 mg/kg/injection, schedule: Q01DX009 (ip), vehicle: saline with Tween-80) was 123 % of control.
`CC(C)CC1NC(=O)C(NC(=O)c2ncccc2O)C(C)OC(=O)C(c2ccccc2)N(C)C(=O)C(C)NC(=O)C(C(C)C(C)C)N(C)C(=O)CN(C)C(=O)C2CC(O)CN2C1=O` (stereo unspecified) ({Picolinoyl(3-OH)}-TL[Hyp][Sar][X2]A[NMePhg]; ester 1-C; configuration not given here) was tested, and the T/C (dose: 12.5 mg/kg/injection, schedule: Q01DX009 (ip), vehicle: Klucel (hydroxypropylcellulose) (HPC)) was 95 % of control, the T/C [11] was 94 % of control and the T/C [12] was 93 % of control. For the same molecule, the T/C [13] was 95 % of control and 97 % of control and the T/C (dose: 200.0 mg/kg/injection, schedule: Q01DX009 (ip), vehicle: Klucel (hydroxypropylcellulose) (HPC)) was 98 % of control and 119 % of control.
`COc1ccc2[nH]c(-c3ccccc3)cc2c1` was tested, and the T/C [8] was 105 % of control, the T/C (dose: 200.0 mg/kg/injection, schedule: Q04DX003 (ip), vehicle: saline with Tween-80) was 110 % of control and the T/C [9] was 100 % of control.
With `COc1c2c(cc3ccc(=O)oc13)C=CC(C)(C)O2` the T/C (dose: 9.75 mg/kg/injection, schedule: Q01DX005 (ip), vehicle: Klucel (hydroxypropylcellulose) (HPC)) was 100 % of control, the T/C (dose: 19.5 mg/kg/injection, schedule: Q01DX005 (ip), vehicle: Klucel (hydroxypropylcellulose) (HPC)) was 89 % of control and the T/C (dose: 39.0 mg/kg/injection, schedule: Q01DX005 (ip), vehicle: Klucel (hydroxypropylcellulose) (HPC)) was 100 % of control. The T/C (dose: 78.0 mg/kg/injection, schedule: Q01DX005 (ip), vehicle: Klucel (hydroxypropylcellulose) (HPC)) was 89 % of control.
`OCCSCc1cnc2ccccn12` was tested, and the T/C (dose: 25.0 mg/kg/injection, schedule: Q01DX009 (ip), vehicle: saline) was 105 % of control and the T/C (dose: 50.0 mg/kg/injection, schedule: Q01DX009 (ip), vehicle: saline) was 100 % of control.
For `COc1cccc2c1C(=O)c1c(O)c3c(c(O)c1C2=O)CC(O)(C(C)=O)CC3OC1CC(NCC2(O)OC(C(=O)NCCCN(C)C)C(O)C2O)C(O)C(C)O1` (stereo unspecified), the T/C (dose: 2.5 mg/kg/injection, schedule: Q04DX003 (ip), vehicle: water) was 101 % of control, the T/C (dose: 5.0 mg/kg/injection, schedule: Q04DX003 (ip), vehicle: water) was 109 % of control and the T/C (dose: 10.0 mg/kg/injection, schedule: Q04DX003 (ip), vehicle: water) was 108 % of control. The T/C (dose: 20.0 mg/kg/injection, schedule: Q04DX003 (ip), vehicle: water) was 109 % of control and the T/C (dose: 40.0 mg/kg/injection, schedule: Q04DX003 (ip), vehicle: water) was 109 % of control.
For `OC1COCC1O` (stereo unspecified), the T/C [11] was 100 % of control, the T/C [12] was 102 % of control and the T/C [13] was 100 % of control.
In the case of `[N-]=[N+]=Nc1cc(Cl)nnc1-c1ccccc1`, the T/C (dose: 15.0 mg/kg/injection, schedule: Q01DX005 (ip), vehicle: Klucel (hydroxypropylcellulose) (HPC)) is reported as 107 % of control, the T/C (dose: 30.0 mg/kg/injection, schedule: Q01DX005 (ip), vehicle: Klucel (hydroxypropylcellulose) (HPC)) is reported as 105 % of control and the T/C [10] is reported as 100 % of control.
With `NC(N)=N/N=C/c1ccc[nH]1` the T/C (dose: 50.0 mg/kg/injection, schedule: Q01DX005 (ip), vehicle: saline with Tween-80) was 104 % of control, the T/C (dose: 100.0 mg/kg/injection, schedule: Q01DX005 (ip), vehicle: saline with Tween-80) was 106 % of control and the T/C (dose: 200.0 mg/kg/injection, schedule: Q01DX005 (ip), vehicle: saline with Tween-80) was 104 % of control.
For `CC(=O)OCN(C)N=Nc1ccc(C#N)cc1`, the T/C [10] was 104 % of control and the T/C (dose: 120.0 mg/kg/injection, schedule: Q01DX005 (ip), vehicle: Klucel (hydroxypropylcellulose) (HPC)) was 108 % of control.
For `CSCSCC(CO)NC(=O)/C=C/c1c[nH]c(=O)[nH]c1=O` (stereo unspecified), the T/C (dose: 1.0 mg/kg/injection, schedule: Q01DX009 (ip), vehicle: other) was 92 % of control, the T/C (dose: 2.0 mg/kg/injection, schedule: Q01DX009 (ip), vehicle: other) was 97 % of control and the T/C (dose: 4.0 mg/kg/injection, schedule: Q01DX009 (ip), vehicle: other) was 98 % of control. For the same molecule, the T/C (dose: 8.0 mg/kg/injection, schedule: Q01DX009 (ip), vehicle: other) was 93 % of control, the T/C (dose: 16.0 mg/kg/injection, schedule: Q01DX009 (ip), vehicle: other) was 102 % of control and the T/C (dose: 32.0 mg/kg/injection, schedule: Q01DX009 (ip), vehicle: other) was 107 % of control.
`CC1(C(=O)O)NCCc2cc(O)c(O)cc21` (stereo unspecified) was tested, and the T/C (dose: 50.0 mg/kg/injection, schedule: Q01DX005 (ip), vehicle: Klucel (hydroxypropylcellulose) (HPC)) was 104 % of control, the T/C (dose: 100.0 mg/kg/injection, schedule: Q01DX005 (ip), vehicle: Klucel (hydroxypropylcellulose) (HPC)) was 104 % of control and the T/C (dose: 200.0 mg/kg/injection, schedule: Q01DX005 (ip), vehicle: Klucel (hydroxypropylcellulose) (HPC)) was 103 % of control.
